# Data: PubChem BioAssay (NCI)
#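 Protocol summary: plate cells (96-well), add compound at 5 concentrations, incubate 48 h, interpolate endpoints linearly. Definition used: TGI = concentration required for complete inhibition of growth.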
# Columns and labels:
# Test in all cases: NCI tumour cell line growth inhibition, 48 h
# [1] = test system: MOLT-4 leukemia
# [2] = test system: U251 CNS
# [3] = test system: CCRF-CEM leukemia
# [4] = test system: RPMI-8226 leukemia
# [5] = test system: NCI-H522 lung
# [6] = test system: LOX IMVI melanoma
# [7] = test system: NCI-H460 lung
# [8] = test system: 786-0 renal
# [9] = test system: HT29 colon
# [10] = test system: RXF 393 renal
# [11] = test system: SF-539 CNS
# [12] = test system: SF-295 CNS
# [13] = test system: EKVX NSCLC
# [14] = test system: KM20L2 colon
# [15] = test system: M14 melanoma
# [16] = test system: UACC-62 melanoma
# [17] = test system: SF-268 CNS
# [18] = test system: SNB-19 CNS
# [19] = test system: SK-MEL-2 melanoma
# [20] = test system: DMS 273 small cell lung
# [21] = test system: HCT-116 colon
# [22] = test system: K-562 leukemia
# [23] = test system: ACHN renal
# [24] = test system: HCT-15 colon
# [25] = test system: NCI-H226 lung
# [26] = test system: UO-31 renal
# [27] = test system: OVCAR-4 ovarian
# [28] = test system: SN12C renal
# [29] = test system: A549 NSCLC
# [30] = test system: HOP-92 NSCLC
# [31] = test system: HL-60(TB) leukemia
# [32] = test system: OVCAR-5 ovarian
# [33] = test system: OVCAR-8 ovarian
# [34] = test system: KM12 colon
# [35] = test system: M19-MEL melanoma
# [36] = test system: SK-OV-3 ovarian
# [37] = test system: CAKI-1 renal
# [38] = test system: COLO 205 colon
# [39] = test system: NCI-H23 lung
# [40] = test system: SK-MEL-28 melanoma
# [41] = test system: UACC-257 melanoma
# [42] = test system: HOP-18 NSCLC
# [43] = test system: OVCAR-3 ovarian
# [44] = test system: MALME-3M melanoma
# [45] = test system: TK-10 renal
# [46] = test system: SNB-75 CNS
# [47] = test system: SNB-78 CNS
# [48] = test system: SW-620 colon
# [49] = test system: IGROV1 ovarian
# [50] = test system: SK-MEL-5 melanoma
# [51] = test system: DLD-1 colon
# [52] = test system: LXFL 529 NSCLC
# [53] = test system: SR leukemia
# [54] = test system: A498 renal
# [55] = test system: DMS 114 small cell lung
# [56] = test system: HOP-62 NSCLC
smiles,measurement,setting,value
O=C(O)C1=NNC(C(=O)O)=NN1,TGI,[1],> 100 µM
same,TGI,[2],> 100 µM
same,TGI,[3],> 100 µM
same,TGI,[4],> 100 µM
same,TGI,[5],> 100 µM
same,TGI,[6],> 100 µM
same,TGI,[7],> 100 µM
same,TGI,[8],> 100 µM
same,TGI,[9],> 100 µM
same,TGI,[10],> 100 µM
same,TGI,[11],> 100 µM
same,TGI,[12],> 100 µM
same,TGI,[13],> 100 µM
same,TGI,[14],> 100 µM
same,TGI,[15],> 100 µM
same,TGI,[16],> 100 µM
same,TGI,[17],> 100 µM
same,TGI,[18],> 100 µM
same,TGI,[19],> 100 µM
same,TGI,[20],> 100 µM
same,TGI,[21],> 100 µM
same,TGI,[22],> 100 µM
same,TGI,[23],> 100 µM
same,TGI,[24],> 100 µM
same,TGI,[25],> 100 µM
same,TGI,[26],> 100 µM
same,TGI,[27],> 100 µM
same,TGI,[28],> 100 µM
same,TGI,[29],> 100 µM
same,TGI,[30],> 100 µM
same,TGI,[31],> 100 µM
same,TGI,[32],> 100 µM
same,TGI,[33],> 100 µM
same,TGI,[34],> 100 µM
same,TGI,[35],> 100 µM
same,TGI,[36],> 100 µM
same,TGI,[37],> 100 µM
same,TGI,[38],> 100 µM
same,TGI,[39],> 100 µM
same,TGI,[40],> 100 µM
same,TGI,[41],> 100 µM
same,TGI,[42],> 100 µM
same,TGI,[43],> 100 µM
same,TGI,[44],> 100 µM
same,TGI,[45],> 100 µM
same,TGI,[46],> 100 µM
same,TGI,[47],> 100 µM
same,TGI,[48],> 100 µM
same,TGI,[49],> 100 µM
same,TGI,[50],> 100 µM
same,TGI,[51],> 100 µM
same,TGI,[52],> 100 µM
CN(C)CC/C(=N\Nc1ccc(Cl)c(Cl)c1)c1ccccc1,TGI,[1],5.9 µM
same,TGI,[2],3.28 µM
same,TGI,[3],6.18 µM
same,TGI,[4],6.73 µM
same,TGI,[5],4.28 µM
same,TGI,[6],3.06 µM
same,TGI,[7],3.65 µM
same,TGI,[8],3.37 µM
same,TGI,[9],4.05 µM
same,TGI,[10],8.47 µM
same,TGI,[53],5.58 µM
same,TGI,[11],3.47 µM
same,TGI,[12],3.99 µM
same,TGI,[13],3.93 µM
same,TGI,[14],3.17 µM
same,TGI,[16],3.88 µM
same,TGI,[54],9.13 µM
same,TGI,[17],3.48 µM
same,TGI,[55],3.86 µM
same,TGI,[56],6.09 µM
same,TGI,[18],13.8 µM
same,TGI,[20],3.23 µM
same,TGI,[21],3.19 µM
same,TGI,[22],4.68 µM
same,TGI,[23],3.05 µM
same,TGI,[24],4.18 µM
same,TGI,[26],3.25 µM
same,TGI,[27],5.01 µM
same,TGI,[28],5.26 µM
same,TGI,[29],3.8 µM
same,TGI,[31],5.8 µM
same,TGI,[32],6.34 µM
same,TGI,[33],3.96 µM
same,TGI,[34],3.92 µM
same,TGI,[35],3.51 µM
same,TGI,[36],14.1 µM
same,TGI,[38],3.15 µM
same,TGI,[39],3.67 µM
same,TGI,[40],6.43 µM
same,TGI,[41],9.61 µM
same,TGI,[42],5.76 µM
same,TGI,[43],6.45 µM
same,TGI,[44],13.3 µM
same,TGI,[45],3.68 µM
same,TGI,[46],7.08 µM
same,TGI,[47],5.65 µM
same,TGI,[48],3.68 µM
same,TGI,[49],5.68 µM
same,TGI,[50],3.43 µM
same,TGI,[51],10 µM
same,TGI,[52],2.9 µM
